According to patent US7662388B2, “Endogenous peptide and active subfragments thereof” (Innoventus Project AB, priority 2003, dated 2010):

Tests used:
T241 fibrosarcoma cells = assay: fibrosarcoma tumour growth in mice (HRGP); assay type: in vivo; conditions: fibrosarcoma-bearing mice, summary of experiment 4
Method: Animal work was carried out at the local animal facility and was approved by the Uppsala University board of animal experimentation and thus performed according to the UKCCCR guidelines for the welfare of animals in experimental neoplasia (Workman et al (1988)). The mice were anesthetized with isoflurane (Forene; Abbott) during all manipulations. Female, 5 week old, C57BL6/1 mice (Mollegard/Bomhultgard, Denmark) were injected with 0.5×10^6 T241 fibrosarcoma cells subcutaneously (s.c.) into the left flank. Animals carrying palpable tumours were randomized (n=7-10 animals/treatment group) and received treatment with vehicle (PBS), 4 mg/kg/day of pHRGP or 5 mg/kg/day of human IgG or His-HRGP, given as daily subcutaneous injections in the right flank. The tumours were measured with a caliper once a day, in a blind procedure, and volumes were calculated by the formula […]. When the tumours reached the upper limit of 2 cm^3, the mice were sacrificed. Three animals in each group were perfused with 4% paraformaldehyde in PBS pH 7.4. Tumours were embedded in paraffin according to standard histological procedures and sectioned at […] thickness.
C57/bl6 mice were inoculated subcutaneously with T241 fibrosarcoma cells on their left flank and when the tumours were palpable (after 4-6 days), a daily treatment was initiated with HRGP or control (PBS; FIG. 2A, or human IgG; FIG. 2B). Endostatin was included in one study for comparison (FIG. 2B). The treatment was given as subcutaneous injections in the right flank until the size of the control tumours reached the upper limit of […] (11 days; FIG. 2A, 14 days; FIG. 2B). Injections with both pHRGP (4 mg/kg/day) and His-HRGP (5 mg/kg/day) led to a drastic reduction in tumour growth and at the time of sacrifice, the size of the tumours was reduced by 67% (FIG. 2A) and 61% (FIG. 2B) respectively, compared to control-treated animals. Endostatin treatment (25 mg/kg/day) lacked significant inhibitory effect on tumour growth in this model (32% decrease).

[1] = test system: NIH 3T3 murine fibroblasts; assay: chemotaxis assay in modified Boyden chamber, NIH 3T3 fibroblasts; assay type: cell-based; conditions: 100 ng/ml HRGP
Method: The porcine aortic endothelial (PAE) cell line overexpressing FGF receptor-1 (FGFR-1) (Wennström et al 1992) was cultured in Ham's F12/10% fetal bovine serum (FCS) and NIH 3T3 murine fibroblasts were cultured in Dulbecco's modified medium (DMEM)/10% newborn calf serum (NCS). F12, DMEM and serum were bought from Life Technologies. Primary bovine adrenal cortex capillary endothelial (BCE) cells were cultured on gelatin-coated dishes in DMEM/10% NCS and 2 ng/ml FGF-2 (Boehringer Mannheim). For chemotaxis assays, both PAE and NIH 3T3 cells were serum-starved over night in 0.1% BSA and BCE cells in 0.5% NCS. Human embryonic kidney (HEK) 293-EBNA cells were cultured in DMEM/10% FCS. Approximately every second month they were given 0.25 mg/ml G418 (Calbiochem) to ensure positive selection of the EBNA-1 expressing cells.
A migration assay was performed in a modified Boyden chamber as described earlier (Auerbach et al., 1991) using micropore polycarbonate filters (8 μm thick, 8 μm pore) coated with type-1 collagen solution at 100 μg/ml (Vitrogen 100, Collagen Corp). […] After 5 h at 37° C., migrated cells were stained with Giemsa and counted using an image analysis software (Easy Image Analysis) from Tekno Optik AB, Sweden. All samples were analysed in at least six parallel wells for each treatment.

## HRGP: mature human Histidine Rich Glycoprotein, about 507 amino acid residues
T241 fibrosarcoma cells
  reduction in tumour volume compared to control-treated mice: more than 60%
[1]
  FGF-2-induced chemotaxis of NIH 3T3 murine fibroblasts: not inhibited
